What all share (format): cell-based
In one series the test system is neutrophils. Nature of the series: Cell viability / cytotoxicity by propidium iodide exclusion assay. The note with it: 10 μg/ml, drug alone, 1 h incubation. How it is done: FIG. 17. Effects of Fan, Tet or SPRST on cell viability. Cell viability was measured by a propidium iodide exclusion assay. After incubation of cells (2×10^6/ml) with SPRST or test drugs for 1 h, cell suspension was further incubated with propidium iodide (10 μg/ml) and fluorescein diacetate (100 ng/ml) at room temperature for 10 min. Cell suspension was analyzed immediately on a flow cytometer (FACSCalibur™; Becton Dickinson) by recording forward and light scatter, red (>630 nm) and green (520 nm) fluorescence. […] Cell viability (%) was calculated by the CellQuest® software (Becton Dickinson) on a Power Macintosh 7300/200 computer. […]
Estimation of cell viability. Cell viability was determined according to Ormerod's method (Ormerod, M. G., 2000. Further applications to cell biology. In: Ormerod, M. G (Ed.), Flow cytometry, Third edition. Oxford University Press, UK, pp. 249-250) after incubation of, cells (2×10^6/ml) with test drugs for 1 h in 5-ml polystyrene round-bottomed tube (FALCON, Becton Dicson). […] After incubation with test drugs, cells suspension were further incubated with propidium iodide and fluorescein diacetate at room temperature for 10 min and analyzed immediately on a flow cytometer (FACSCalibur™; Becton Dickinson) by recording forward and light scatter, red (>630 nm) and green (520 nm) fluorescence. […]

Series [1] concerns human neutrophils. The series is described as follows: fMLP- or LTB4-induced intracellular calcium concentration ([Ca2+]i), fura-2. The note with it: 500 ng/ml pretreatment, 2 hrs. For orientation: Calcium flux is commonly read through the fluorescence of an indicator in the cells.
Procedure: Neutrophils (2×10^6/ml) were preloaded with fura 2-AM (5 μM) at 37° C. for 45 min and washed twice with HBSS (calcium free). […] For G-protein study, sample was pretreated with 500 ng/ml of pertussis toxin (PTX) at 37° C. for 2 hrs. Samples were gentle mixed with a micromagnetic stirrer at 37° C. for 5 min before addition of 1 μM of fMLP. [Ca^2+]i was measured on a spectrofluorometer as described in Materials and Methods. Net increase in [Ca^2+]i was calculated by subtracting control values from respective experimental values (control [Ca^2+]i in resting cell was 108±16 nM).
Neutrophils (2×10^6/ml) were preloaded with fura 2-AM (5 μM) at 37° C. for 45 min and washed twice with HBSS (calcium free). […] For G-protein study, sample was pretreated with 500 ng/ml of pertussis toxin (PTX) at 37° C. for 2 hrs. […] [Ca^2+]i was measured on a spectrofluorometer as described in Materials and Methods. Net increase in [Ca^2+]i was calculated by subtracting control values from respective experimental values (control [Ca^2+]i in resting cell was 108±16 nM). […]
Where: K=224 nM (Fura-2 at 37° C.), Rmin=ratio value in minimal Ca^2+ conditions, Rmax=ratio value at a maximal Ca^2+ concentration, Sf380=380 nm reading in minimal Ca^2+ conditions (corrected for background), Sb380 =380 nm reading in maximal Ca^2+ conditions (corrected for background). […]
Series [2] concerns human neutrophils. The series is described as follows: AlF4−-induced neutrophil firm adhesion. The conditions noted are these: 500 ng/ml pretreatment, 2 hrs.
Procedure: Effects of SPRST, Tet, or Fan on AlF4^−-induced changes in neutrophil adhesion. Fura 2-AM or BCECF-AM labeled-neutrophils were pretreated with 5-10 μg/ml of SPRST or other chemicals at 37° C. for 10 min. For G-protein study, sample was pretreated with 500 ng/ml of pertussis toxin (PTX) at 37° C. for 2 hrs before the addition of AlF4^− (10 mM NaF plus 10 μM AlCl3), a direct G-protein activator. AlF4^−-induced neutrophil adhesion were measured as described in Materials and Methods.
Measurement of Neutrophil Firm Adhesion. Adhesion of neutrophils to extracellular matrix was determined in 24-well tissue culture plates (FALCON®, NJ, USA) coated with fibrinogen as our previous study (Shen et al., 1999). Prior to the addition of neutrophils, the plates were incubated with 250 μl per well of human fibrinogen (50 pg/ml in PBS; Chemicon International, Inc., CA) for 2 hrs at 37° C. The wells were washed once with HBSS, blocked with 1% BSA (Sigma, USA) in HBSS for 1 hr at 37° C., and washed twice with HBSS containing 0.1% Tween-20 (Sigma, USA) and once with HBSS. […] Adherent neutrophils were then determined by measuring the fluorescence with a fluorescent plate reader (Cytofluor 2300, Millipore®) with excitation at 485 nm and emission at 530 nm. Data are expressed as fluorescence intensity.
Series [3] deals with human neutrophils. Nature of the series: AlF4−-induced (direct G protein activation) [Ca2+]i increment. The note with it: 500 ng/ml pretreatment, 2 hrs.
Procedure: Effects of SPRST, Tet, or Fan on AlF4^−-induced changes in intracellular calcium concentration ([Ca^2+]i). Fura 2-AM or BCECF-AM labeled-neutrophils were pretreated with 5-10 μg/ml of SPRST or other chemicals at 37° C. for 10 min. For G-protein study, sample was pretreated with 500 ng/ml of pertussis toxin (PTX) at 37° C. for 2 hrs before the addition of AlF4^− (10 mM NaF plus 10 μM AlCl3), a direct G-protein activator. AlF4^−-induced changes in [Ca^2+]i were measured as described in Materials and Methods. […] Values are mean±S.E.M. (n=5). *P<0.05, as compared to samples receiving AlF4^− alone for [Ca^2+]i and neutrophil adhesion, respectively. […]
Where: K=224 nM (Fura-2 at 37° C.), Rmin=ratio value in minimal Ca^2+ conditions, Rmax=ratio value at a maximal Ca^2+ concentration, Sf380=380 nm reading in minimal Ca^2+ conditions (corrected for background), Sb380 =380 nm reading in maximal Ca^2+ conditions (corrected for background). Rmax and Sb380 were obtained at the end of a measurement by permeabilizing the cells with 0.2% digitonin, where Rmin and Sf380 were determined by adding 20 mM EGTA after digitonin lysis.

As to `COc1ccc2cc1Oc1ccc(cc1)C[C@H]1c3cc(c(OC)cc3CCN1C)Oc1c(OC)c(OC)cc3c1[C@H](C2)N(C)CC3` [Tet, tetrandrine], the “cytotoxic effect (dead cells)” value in the series with neutrophils is given as 1.24±0.17%.

Regarding pertussis toxin [PTX], the “inhibition of fMLP- or LTB4-triggered rapid increase in [Ca2+]i” value in the series on human neutrophils [1] is given as “abolished”. In addition, in the series with human neutrophils [2], the “AlF4−-induced neutrophil firm adhesion” value is listed as “significantly inhibited”. For the same compound, the “AlF4−-induced [Ca2+]i increment” value in the series with human neutrophils [3] is given as “significantly inhibited”.

On to `COc1ccc2cc1Oc1ccc(cc1)C[C@H]1c3cc(c(OC)cc3CCN1C)Oc1c(O)c(OC)cc3c1[C@H](C2)N(C)CC3` [Fan, fangchinoline], for which the “cytotoxic effect (dead cells)” value in the series on neutrophils was 0.84±0.11%.

These data come from patent US20040105907A1, “Anti-inflammatory effects of the partially purified extract of radix stephaniae tetrandrae” (priority 2002, published 2004).
